Experimental data from US20100152291A1, “PRODUCTION METHOD OF CAPSINOID BY DEHYDRATING CONDENSATION, STABILIZING METHOD OF CAPSINOID, AND CAPSINOID COMPOSITION” (AJINOMOTO CO., INC., priority 2005, published 2010).

Tests used:
[1] = Stability of capsinoid containing fatty acid, preserved in hexane at 5° C., purity by HPLC; type: physicochemical
Procedure: For example, dihydrocapsiate was synthesized using a small excess of fatty acid, and dihydrocapsiate obtained by preparatively separating together with the excess fatty acid remaining in about 2 wt % relative to dihydrocapsiate was analyzed by HPLC.
(§1) The HPLC measurement conditions of capsinoid are as follows. HPLC conditions: column: Inertsil C8 3 u μm (diameter 4.0 mm×100 mm) eluent: A mixed solvent of eluents A, B shown below and a buffer was eluted by gradient elution method. […]
(§2) eluent A: CH3CN:buffer=80:20 eluent B: CH3CN:buffer=0:100 […]
(§3) temperature: room temperature
Capsiate obtained in the same manner as in Example 5, which contained 3.2 wt % of fatty acid, was analyzed by HPLC to find the purity of 97.8 area %. This capsiate was preserved in a hexane solvent at 5° C. for 30 days and analyzed by HPLC.
Dihydrocapsiate obtained in the same manner as in Example 15, which contained 2.0 wt % of fatty acid, was analyzed by HPLC to find 99.2 area %. This dihydrocapsiate was preserved in a hexane solvent at 5° C. for 30 days and analyzed by HPLC.

[2] = Stability of vanillyl decanoate in acetonitrile with or without decanoic acid, purity by HPLC; type: physicochemical
Description: When ester compound (3) is separated and purified by column chromatography, fatty acid (1) present in excess in the reaction mixture has an Rf value similar to that of ester compound (3); therefore, the separation and purification of ester compound (3) is associated with difficulty. […] For example, when vanillyl decanoate was synthesized from decanoic acid and vanillyl alcohol, separated and purified from decanoic acid by silica gel column chromatography to give pure vanillyl decanoate, which was dissolved in acetonitrile and analyzed by HPLC. As a result, the purity of vanillyl decanoate was 95.6 area %. However, when the sample was reanalyzed 62 hours later, the purity decreased to 82.0 area %. […] Vanillyl decanoate is considered to have become unstable upon separation from decanoic acid. Therefore, fatty acid (1), difficult to be separated from ester compound (3), is preferably left coexisted rather than being separated, from the aspect of stability of ester compound (3).
For example, when 9.1 wt % of decanoic acid was added, in acetonitrile, to pure vanillyl decanoate separated from decanoic acid, the purity of vanillyl decanoate was 97.6 area % even after 19.5 hours and the purity was maintained.
as §1, §2, §3
Vanillyl decanoate was separately synthesized from vanillyl alcohol and decanoic acid, and its stability was examined. Decanoic acid was separated by silica gel column chromatography, and the purified product was dissolved in acetonitrile and analyzed by […]
HPLC to find 95.6 area %. When the sample was reanalyzed 62 hours later, the purity decreased to 82.0 area %, and vanillyl decanoate was confirmed to have been decomposed.
Decanoic acid was separated by silica gel column chromatography, and the purified product, vanillyl decanoate, was dissolved in acetonitrile and analyzed by HPLC 9 hours later to find 90.4 area %. To the acetonitrile solution of the purified product, vanillyl decanoate, was added 9.1 wt % of decanoic acid, and the mixture was analyzed by HPLC 19.5 hours later to find 97.6 area %, showing increase in the purity as compared to the absence of decanoic acid addition. Similarly, 16.7 wt %, 28.7 wt % and 44.8 wt % of decanoic acid was added to vanillyl decanoate to result in higher purities of 98.1 area %, 98.1 area % and 97.9 area % as compared to the absence of decanoic acid addition.

## COc1cc(COC(=O)CCCC/C=C/C(C)C)ccc1O [capsiate]
[1]; containing 3.2 wt % of fatty acid, before preservation
  purity by HPLC: 97.8 area %
[1]; containing 3.2 wt % of fatty acid, preserved in hexane at 5° C. for 30 days
  purity by HPLC: 97.6 area %

## COc1cc(COC(=O)CCCCCCC(C)C)ccc1O [dihydrocapsiate]
[1]; containing 2.0 wt % of fatty acid, preserved in hexane at 5° C. for 30 days
  purity by HPLC: 99.3 area %
[1]; with about 2 wt % excess fatty acid, in hexane at 5° C.
  time stably preserved without decomposition: at least 30 days

## CCCCCCCCCC(=O)OCc1ccc(O)c(OC)c1 [vanillyl decanoate]
[2]; acetonitrile solution, 9.1 wt % of decanoic acid added, 19.5 hours later
  purity by HPLC: 97.6 area %
[2]; acetonitrile solution, 16.7 wt % of decanoic acid added
  purity by HPLC: 98.1 area %
[2]; acetonitrile solution, 28.7 wt % of decanoic acid added
  purity by HPLC: 98.1 area %
[2]; acetonitrile solution, 44.8 wt % of decanoic acid added
  purity by HPLC: 97.9 area %
[2]; pure product separated from decanoic acid, dissolved in acetonitrile, first analysis
  purity by HPLC: 95.6 area %
[2]; pure product separated from decanoic acid, in acetonitrile, reanalyzed 62 hours later
  purity by HPLC: 82.0 area %
[2]; purified product without decanoic acid, in acetonitrile, 9 hours later
  purity by HPLC: 90.4 area %
